In ChEMBL document CHEMBL1687704, “Benzimidazole-2-pyrazole HIF Prolyl 4-Hydroxylase Inhibitors as Oral Erythropoietin Secretagogues” (ACS Med Chem Lett, 2010):

How the values were obtained:
[1] = Plasma concentration in Balb-C mouse at 100 umol/kg, po after 1 hr; type: ADME, organism-based
[2] = Plasma concentration in Balb-C mouse at 100 umol/kg, po after 6 hrs; type: ADME, organism-based

O=C(O)c1cnn(-c2nc3cc(C(F)(F)F)c(F)cc3[nH]2)c1
concentration at 1 h [1]: 14 µM
concentration at 6 h [2]: 0.1 µM
